Data on eight compounds can be found in PubChem BioAssay (NCI).

Where “and” joins values, the source holds several entries; their conditions need not be identical. Identical values can stand only once.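 All cell lines were grown in 96-well plates and treated with compound for 48 hours. The concentration for 50% growth inhibition is given as GI50. At the TGI there is no net growth.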

Among the test systems are HOP-62 NSCLC; IGROV1 ovarian; NCI-H460 lung; OVCAR-5 ovarian; SF-268 CNS; SF-539 CNS; SK-MEL-28 melanoma; SNB-19 CNS; TK-10 renal; UACC-257 melanoma.
What all share (assay): NCI anticancer screen, dose series, 48 h

Consider `CCn1c(-c2nonc2N)nc2ccccc21`, for which the GI50 in the experiment with HOP-62 NSCLC, in the experiment with IGROV1 ovarian, with NCI-H460 lung, in the experiment on OVCAR-5 ovarian, in the experiment with SF-268 CNS and in the experiment with SF-539 CNS was greater than 25 µM in each case. In addition, the GI50 with SK-MEL-28 melanoma is greater than 25 µM; in the experiment on SNB-19 CNS, greater than 25 µM; with TK-10 renal, 7.32 µM; with UACC-257 melanoma, greater than 25 µM. The TGI in the experiment with HOP-62 NSCLC, in the experiment with IGROV1 ovarian, in the experiment on NCI-H460 lung, with OVCAR-5 ovarian, with SF-268 CNS and with SF-539 CNS was greater than 25 µM throughout. For the same compound, the TGI in the experiment on SK-MEL-28 melanoma, with SNB-19 CNS, in the experiment on TK-10 renal and with UACC-257 melanoma was greater than 25 µM in each case.

In the case of `NNc1c(C(N)=O)c2c(N)ncnc2n1C1OC(CO)C(O)C1O` (centres undefined), the GI50 with HOP-62 NSCLC was 0.124 µM; in the experiment on IGROV1 ovarian, 0.0276 µM and 0.0476 µM; with NCI-H460 lung, 0.0197 µM and 0.14 µM; in the experiment with OVCAR-5 ovarian, 0.0578 µM and 0.309 µM; in the experiment with SF-268 CNS it was 0.0451 µM and 0.0928 µM; with SF-539 CNS, 0.0529 µM and 0.0718 µM. In addition, the GI50 was 0.138 µM and 0.0291 µM in the experiment with SK-MEL-28 melanoma; 0.187 µM in the experiment with SNB-19 CNS; 0.0243 µM and 0.0434 µM in the experiment on TK-10 renal; 0.0404 µM and 0.132 µM in the experiment on UACC-257 melanoma. Also, the TGI was 1.12 µM and 3.54 µM in the experiment with IGROV1 ovarian; 0.673 µM and 4.45 µM in the experiment on NCI-H460 lung; 1.1 µM and 7.56 µM in the experiment with OVCAR-5 ovarian; 1.05 µM and 1.22 µM with SF-268 CNS; 1.15 µM and 0.273 µM with SF-539 CNS; 0.759 µM and 0.192 µM in the experiment on SK-MEL-28 melanoma. The TGI with SNB-19 CNS was 8.54 µM and 18.2 µM; in the experiment with TK-10 renal, 1.14 µM and 1.49 µM; in the experiment on UACC-257 melanoma, 0.254 µM and 1.37 µM.

For `CCOc1ccc(NC(=O)CC2SC(=Nc3ccc(C)cc3)NC2=O)cc1` (centres undefined), the TGI with HOP-62 NSCLC, with IGROV1 ovarian, in the experiment on NCI-H460 lung, in the experiment with OVCAR-5 ovarian, with SF-268 CNS and in the experiment on SF-539 CNS was greater than 100 µM each time. In addition, the TGI with SK-MEL-28 melanoma, in the experiment on SNB-19 CNS, in the experiment on TK-10 renal and with UACC-257 melanoma was greater than 100 µM each time.

On to `CC(C)=C[C@@H]1C[C@H](C)[C@H]2CC[C@H](C)c3c(O)c(OC4OC(C)C(O)C(O)C4O)c(C)c1c32` (some centres undefined), for which the GI50 is 19.2 µM with HOP-62 NSCLC; 13.7 µM in the experiment on IGROV1 ovarian; 7.83 µM with NCI-H460 lung; 10.5 µM in the experiment on OVCAR-5 ovarian; 16 µM in the experiment on SF-268 CNS; 17.9 µM with SF-539 CNS. The GI50 in the experiment with SK-MEL-28 melanoma is 18.1 µM; in the experiment on SNB-19 CNS it was 15.7 µM; with TK-10 renal, 16.3 µM; with UACC-257 melanoma it was 14.2 µM. Besides, the TGI in the experiment on HOP-62 NSCLC came out at 34.7 µM; in the experiment with IGROV1 ovarian, 26.8 µM; in the experiment with NCI-H460 lung it was 21.2 µM; in the experiment with OVCAR-5 ovarian, 23.2 µM; with SF-268 CNS, 31.3 µM; with SF-539 CNS it was 33 µM. Moreover, the TGI with SK-MEL-28 melanoma amounted to 32.1 µM; in the experiment on SNB-19 CNS it was 29.2 µM; in the experiment on TK-10 renal it was 30.2 µM; in the experiment on UACC-257 melanoma, 27.3 µM.

Take `C=CCNC(=S)NNC(=O)c1c(C)nc2sccn12`: the TGI in the experiment with HOP-62 NSCLC, in the experiment on IGROV1 ovarian, in the experiment with NCI-H460 lung, in the experiment on OVCAR-5 ovarian, in the experiment with SF-268 CNS and in the experiment with SF-539 CNS was greater than 100 µM in each case. For the same compound, the TGI in the experiment with SK-MEL-28 melanoma, in the experiment on SNB-19 CNS, in the experiment with TK-10 renal and in the experiment on UACC-257 melanoma was greater than 100 µM in each case.

As for `CNC(=O)CCN1CCN(CC/C=C2\c3ccccc3Sc3ccc(Cl)cc32)CC1`, the GI50 with HOP-62 NSCLC was 14.6 µM; in the experiment with IGROV1 ovarian it was 15.1 µM; in the experiment with NCI-H460 lung it was 7.02 µM; in the experiment on OVCAR-5 ovarian it was 22.6 µM; in the experiment with SF-268 CNS it was 9.83 µM; in the experiment on SF-539 CNS, 12.5 µM. Moreover, the GI50 was 1.76 µM in the experiment on SK-MEL-28 melanoma, 16 µM in the experiment with SNB-19 CNS, 14 µM in the experiment with TK-10 renal and 1.53 µM in the experiment on UACC-257 melanoma. In addition, the TGI was determined as 32.7 µM in the experiment on HOP-62 NSCLC; 37.3 µM in the experiment with IGROV1 ovarian; 21.6 µM in the experiment with NCI-H460 lung; 41.2 µM in the experiment with OVCAR-5 ovarian; 23.9 µM with SF-268 CNS; 25.6 µM with SF-539 CNS. For the same compound, the TGI worked out at 3.36 µM in the experiment on SK-MEL-28 melanoma, 30.7 µM with SNB-19 CNS, 29.2 µM in the experiment on TK-10 renal and 3.06 µM in the experiment on UACC-257 melanoma.

As for `Clc1ccc(C=Nc2ccc(-c3nc4ccccc4[nH]3)cc2)cc1`, the GI50 with HOP-62 NSCLC is greater than 100 µM; in the experiment with IGROV1 ovarian, greater than 100 µM; in the experiment on NCI-H460 lung, greater than 100 µM; in the experiment on OVCAR-5 ovarian it was greater than 100 µM; with SF-268 CNS, 58.4 µM; in the experiment with SF-539 CNS it was greater than 100 µM. Further, the GI50 in the experiment with SK-MEL-28 melanoma is greater than 100 µM; with SNB-19 CNS it was 55.6 µM; in the experiment with TK-10 renal, greater than 100 µM; in the experiment on UACC-257 melanoma it was greater than 100 µM. For the same compound, the TGI with HOP-62 NSCLC, with IGROV1 ovarian, in the experiment with NCI-H460 lung, in the experiment with OVCAR-5 ovarian, in the experiment with SF-268 CNS and with SF-539 CNS was greater than 100 µM throughout. The TGI in the experiment with SK-MEL-28 melanoma, with SNB-19 CNS, in the experiment on TK-10 renal and with UACC-257 melanoma was greater than 100 µM each time.

As for `COc1ccc(/C=C/C(=O)c2c(-c3ccccc3)nn(C)c(=O)c2N2CC2C)cc1` (centres undefined), the TGI with HOP-62 NSCLC is greater than 100 µM; in the experiment on IGROV1 ovarian it was greater than 100 µM; in the experiment on NCI-H460 lung, 65.5 µM; in the experiment on OVCAR-5 ovarian it was greater than 100 µM; in the experiment with SF-268 CNS, greater than 100 µM; in the experiment with SF-539 CNS it was greater than 100 µM. In addition, the TGI in the experiment with SK-MEL-28 melanoma, in the experiment on SNB-19 CNS, with TK-10 renal and in the experiment with UACC-257 melanoma was greater than 100 µM each time.
